US20060069132A1, “Azolecarboxamide herbicides” (priority 2004, published 2006)
Like-named read-outs stand apart in the source and are kept apart here.

How the values were obtained:
[1] = tested on: velvetleaf; test: Test A pre-/postemergence herbicide test; assay type: in vivo, Abutilon theophrasti; conditions: for pest or weed control at 500 g/ha / pest or weed control at 2000 g/ha: Abutilon theophrasti, 240 h
Outline: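 Plants are held in greenhouse about ten days after treatment, then compared with untreated controls and scored 0 (no effect) to 100 (complete control). Preemergence dosing is a directed soil spray on sown sandy loam; postemergence dosing is spray to runoff at 2–10 cm height.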

[2] = tested on: rice; test: Test B pre-/postemergence herbicide test; assay type: in vivo, Oryza sativa; conditions: for plant injury at 500 g/ha / plant injury at 125 g/ha: Oryza sativa, pre-emergence, 336 h
Outline: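 Greenhouse pot assay with simultaneous preemergence (treated seed) and postemergence (2–18 cm seedlings) applications of surfactant-containing, non-phytotoxic solvent formulations. Response scored visually 13–15 days later on a 0–100 scale, 100 meaning complete control.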

[3] = tested on: rice; test: Test C flooded paddy test; assay type: in vivo, Oryza sativa; conditions: for Plant response rating, Rice / plant injury at 500 g/ha: 500 g ai/ha, visual rating after 12 to 14 days; for plant injury at 62 g/ha / plant injury at 125 g/ha / plant injury at 250 g/ha / plant injury at 500 g/ha: Oryza sativa; for plant injury at 62 g/ha / plant injury at 125 g/ha / plant injury at 250 g/ha: read-out: Rice plant response rating; for plant injury at 500 g/ha: read-out: Plant response rating, Rice
Outline: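 Injury scored visually against controls on a 0 (no effect) to 100 (complete control) scale, 12 to 14 days after treatment in greenhouse. Flooded paddy plants treated at 2-leaf stage; postemergence plants at 1- to 4-leaf stage, 2 to 18 cm tall.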

[4] = tested on: smallflower umbrella sedge; test: Test C flooded paddy test; assay type: in vivo, Cyperus difformis; conditions: for Plant response rating, Sedge, Umbrella / pest or weed control at 500 g/ha: 500 g ai/ha, visual rating after 12 to 14 days; for pest or weed control at 62 g/ha / pest or weed control at 125 g/ha / pest or weed control at 250 g/ha / pest or weed control at 500 g/ha: Cyperus difformis; for pest or weed control at 62 g/ha / pest or weed control at 125 g/ha / pest or weed control at 250 g/ha: read-out: Sedge, Umbrella plant response rating; for pest or weed control at 500 g/ha: read-out: Plant response rating, Sedge, Umbrella
[5] = Postemergence, 2000 g ai/ha, 0 to 100 scale, 0 no effect, 100 complete control
[6] = Preemergence, 500 g ai/ha, visual rating, 0 to 100 scale (0 no effect, 100 complete control)
[7] = Preemergence, 2000 g ai/ha, visual rating, 0 to 100 scale (0 no effect, 100 complete control)
[8] = preemergence, 125 g ai/ha, 0 to 100 scale, 0 is no effect, 100 is complete control
[9] = 62 g ai/ha, scale 0 to 100 (0 no effect, 100 complete control)
[10] = 125 g ai/ha, scale of 0 to 100, 0 is no effect, 100 is complete control
[11] = 250 g ai/ha, scale of 0 to 100, 0 is no effect, 100 is complete control
[12] = scale 0 to 100 (0 no effect, 100 complete control)
[13] = Postemergence, 500 g ai/ha, 0 to 100 scale, 0 no effect, 100 complete control
[14] = post-emergence, Postemergence, 500 g ai/ha, 0 to 100 scale, 0 no effect, 100 complete control, read-out: Velvetleaf plant response rating
[15] = post-emergence, Postemergence, 2000 g ai/ha, 0 to 100 scale, 0 no effect, 100 complete control, read-out: Plant response rating, Velvetleaf
[16] = pre-emergence, Preemergence, 2000 g ai/ha, visual rating, 0 to 100 scale (0 no effect, 100 complete control), read-out: Velvetleaf plant response rating
[17] = pre-emergence, preemergence, 500 g ai/ha, visual injury, 0 to 100 scale (0 no effect, 100 complete control), read-out: Velvetleaf plant response rating
[18] = 125 g ai/ha, 0 = no effect, 100 = complete control, read-out: Rice plant response rating (0 to 100 scale)
[19] = 500 g ai/ha, visual rating, 0 = no effect, 100 = complete control, read-out: Plant response rating, Rice
[20] = 125 g ai/ha, scale 0 to 100 (0 no effect, 100 complete control)
[21] = 125 g ai/ha, 0 = no effect, 100 = complete control, preemergence
[22] = 500 g ai/ha, visual rating, 0 = no effect, 100 = complete control, preemergence
[23] = preemergence, 500 g ai/ha, visual injury, 0 to 100 scale (0 no effect, 100 complete control)

For CCn1nc(C(C)(C)C)cc1C(=O)Nc1cccc(C(=O)NOC)c1 [Compound 67], the “Plant response rating, Velvetleaf” value [1, 5] was 15, the “Velvetleaf plant response rating” value [1, 6] was 30 and the “Velvetleaf plant response rating” value [1, 7] was 75. For the same compound, the “Plant response rating, Rice” value [2, 8] was 0, the “Rice plant response rating” value [3, 9] was 0 and the “Rice plant response rating” value [3, 10] was 0. For the same compound, the “Rice plant response rating” value [3, 11] was 0, the “Plant response rating, Rice” value [3, 12] was 30 and the “Sedge, Umbrella plant response rating” value [4, 9] was 50. For the same compound, the “Sedge, Umbrella plant response rating” value [4, 10] was 50, the “Sedge, Umbrella plant response rating” value [4, 11] was 75 and the “Plant response rating, Sedge, Umbrella” value [4, 12] was 75.
In the case of C=CCn1nc(C(C)(C)C)cc1C(=O)Nc1cccc(C(C)=NO)c1 [Compound 117], the “Velvetleaf plant response rating” value [1, 13] is reported as 50, the “Plant response rating, Velvetleaf” value [1, 5] is reported as 65 and the “Velvetleaf plant response rating” value [1, 6] is reported as 50. For the same compound, the “Velvetleaf plant response rating” value [1, 7] was 65, the “Plant response rating, Rice” value [2, 8] was 20 and the “Rice plant response rating” value [3, 9] was 0. For the same compound, the “Rice plant response rating” value [3, 10] was 15, the “Rice plant response rating” value [3, 11] was 45 and the “Plant response rating, Rice” value [3, 12] was 65. For the same compound, the “Sedge, Umbrella plant response rating” value [4, 9] was 40, the “Sedge, Umbrella plant response rating” value [4, 10] was 55 and the “Sedge, Umbrella plant response rating” value [4, 11] was 75. The “Plant response rating, Sedge, Umbrella” value [4, 12] was 80.
Work on CCn1nc(C(C)(C)C)cc1C(=O)Nc1cc(C(=O)OC)ccn1 [Compound 151, methyl 2-[[[3-(1,1-dimethylethyl)-1-ethyl-1H-pyrazol-5-yl]carbonyl]amino]-4-pyridinecarboxylate] yielded a pest or weed control at 500 g/ha [1, 14] of 35%, a pest or weed control at 2000 g/ha [1, 15] of 60% and a pest or weed control at 2000 g/ha [1, 16] of 10%. For the same compound, the pest or weed control at 500 g/ha [1, 17] was 0%, the plant injury at 500 g/ha ([2]; 500 g ai/ha, visual rating 0-100, 0 no effect, 100 complete control, read-out: Plant response rating, Rice) was 0% and the plant injury at 125 g/ha ([2]; preemergence, 125 g ai/ha, 0 to 100 scale, 0 is no effect, 100 is complete control, read-out: Plant response rating, Rice) was 0%.
With CCn1nc(C(C)(C)C)cc1C(=O)Nc1ccc(F)c(C(=O)N(C)C)c1 [Compound 236, N-[3-[(dimethylamino)carbonyl]-4-fluorophenyl]-3-(1,1-dimethylethyl)-1-ethyl-1H-pyrazole-5-carboxamide] the plant injury at 125 g/ha [2, 18] was 40%, the plant injury at 500 g/ha [2, 19] was 60% and the plant injury at 62 g/ha [3, 9] was 0%. The plant injury at 125 g/ha [3, 20] was 30%, the plant injury at 250 g/ha [3, 11] was 60% and the plant injury at 500 g/ha [3, 12] was 70%. It also gave a pest or weed control at 62 g/ha [4, 9] of 0%, a pest or weed control at 125 g/ha [4, 20] of 20% and a pest or weed control at 250 g/ha [4, 11] of 45%. It also gave a pest or weed control at 500 g/ha [4, 12] of 55%.
Work on CCNC(=O)c1cc(NC(=O)c2cn(C(C)(C)C)nc2CC)ccc1F [Compound 241, 1-(1,1-dimethylethyl)-3-ethyl-N-[3-[(ethylamino)carbonyl]-4-fluorophenyl]-1H-pyrazole-4-carboxamide] yielded a plant injury at 125 g/ha [2, 18] of 0%, a plant injury at 500 g/ha [2, 19] of 80% and a plant injury at 62 g/ha [3, 9] of 0%. It also gave a plant injury at 125 g/ha [3, 20] of 0%, a plant injury at 250 g/ha [3, 11] of 30% and a plant injury at 500 g/ha [3, 12] of 65%. For the same compound, the pest or weed control at 62 g/ha [4, 9] was 0%, the pest or weed control at 125 g/ha [4, 20] was 0% and the pest or weed control at 250 g/ha [4, 11] was 55%. It also gave a pest or weed control at 500 g/ha [4, 12] of 85%.
In the case of CCn1nc(C(C)(C)C)cc1C(=O)Nc1cc(C(=O)OC(C)C)c(F)cc1F [Compound 248], the “Rice plant response rating (0 to 100 scale)” value [2, 21] is reported as 0 and the “Plant response rating, Rice” value [2, 22] is reported as 0.
Work on CCOC(=O)c1ccc(F)c(NC(=O)C2CC(C(C)(C)C)=NN2CC)c1 (stereo not drawn) [Compound 267, ethyl 3-[[[3-(1,1-dimethylethyl)-1-ethyl-4,5-dihydro-1H-pyrazol-5-yl]carbonyl]amino]-4-fluorobenzoate] yielded a pest or weed control at 500 g/ha [1, 14] of 30%, a pest or weed control at 2000 g/ha [1, 15] of 35% and a pest or weed control at 2000 g/ha [1, 16] of 60%. The pest or weed control at 500 g/ha [1, 17] was 25%, the plant injury at 125 g/ha [2, 18] was 20% and the plant injury at 500 g/ha [2, 19] was 40%.
For CCn1nc(C(C)(C)C)cc1C(=O)Nc1cccc(OC(C)C)c1 [Compound 273], the “Velvetleaf plant response rating” value [1, 13] was 90, the “Plant response rating, Velvetleaf” value [1, 5] was 95 and the “Velvetleaf plant response rating” value [1, 7] was 75. For the same compound, the “Velvetleaf plant response rating” value [1, 23] was 60, the “Rice plant response rating (0 to 100 scale)” value [2, 21] was 0 and the “Plant response rating, Rice” value [2, 22] was 40. The “Rice plant response rating” value ([3]; 62 g ai/ha, scale 0 to 100) was 10, the “Rice plant response rating” value [3, 20] was 40 and the “Rice plant response rating” value [3, 11] was 50. The “Plant response rating, Rice” value [3, 12] was 60, the “Sedge, Umbrella plant response rating” value ([4]; 62 g ai/ha, scale 0 to 100) was 70 and the “Sedge, Umbrella plant response rating” value [4, 20] was 75. For the same compound, the “Sedge, Umbrella plant response rating” value [4, 11] was 75 and the “Plant response rating, Sedge, Umbrella” value [4, 12] was 75.
CCn1nc(C(C)(C)C)cc1C(=O)Nc1cccc(C(=O)N2CC=CC2)c1 [Compound 286] was tested, and the “Velvetleaf plant response rating” value [1, 13] was 30, the “Plant response rating, Velvetleaf” value [1, 5] was 50 and the “Velvetleaf plant response rating” value [1, 7] was 70. The “Velvetleaf plant response rating” value [1, 23] was 20, the “Rice plant response rating (0 to 100 scale)” value [2, 21] was 30 and the “Plant response rating, Rice” value [2, 22] was 80. For the same compound, the “Rice plant response rating” value ([3]; 62 g ai/ha, scale 0 to 100) was 45, the “Rice plant response rating” value [3, 20] was 55 and the “Rice plant response rating” value [3, 11] was 65. For the same compound, the “Plant response rating, Rice” value [3, 12] was 75, the “Sedge, Umbrella plant response rating” value ([4]; 62 g ai/ha, scale 0 to 100) was 30 and the “Sedge, Umbrella plant response rating” value [4, 20] was 70. For the same compound, the “Sedge, Umbrella plant response rating” value [4, 11] was 90 and the “Plant response rating, Sedge, Umbrella” value [4, 12] was 90.
For CCOC(=O)c1ccc(F)c(NC(=O)c2cc(C3(C)CC3)nn2CC)c1 [Compound 296], the “Plant response rating, Rice” value [2, 22] was 40, the “Rice plant response rating” value ([3]; 62 g ai/ha, scale 0 to 100) was 20 and the “Rice plant response rating” value [3, 20] was 20. For the same compound, the “Rice plant response rating” value [3, 11] was 40, the “Plant response rating, Rice” value [3, 12] was 60 and the “Sedge, Umbrella plant response rating” value ([4]; 62 g ai/ha, scale 0 to 100) was 75. For the same compound, the “Sedge, Umbrella plant response rating” value [4, 20] was 75, the “Sedge, Umbrella plant response rating” value [4, 11] was 75 and the “Plant response rating, Sedge, Umbrella” value [4, 12] was 85.
